Key:
CIA mice = test: Collagen-induced arthritis (CIA) in wild-type C57BL/6J mice; assay type: in vivo
Method: At 12 wk of age (d 0), male C57BL/6J mice were intradermally injected in the superficial layer of tail dermis with a total of 100 μl of an emulsion containing the chicken type II chicken collagen or Freund’s complete adjuvant emulsification (MD Biosciences, Oakdale, MN, USA) ([23]). The same injection was repeated intraperitoneally on d 21. Then, clinical signs of disease were assigned using the following clinical scores: 1, swollen digits; 2, erythema; 3, swollen paw or ankle; 4, loss of function. Mice were treated with verteporfin at a concentration of 0.4 μg/g body weight (0.556 nmol/g) by intravenous injection every 3 d starting from d 21 up to d 36.
Figure 4 Verteporfin (C1) suppresses IL-17 production and autoimmune responses in mice. A–C) Effect of C1 administration (0.4 μg/g body weight every 3 d for a period of 30 d) on serum IL-17A and autoantibodies in 20-wk-old Lck-GLK Tg mice. B) ELISA of serum IL-17A, IL-6, TNF-α, IFN-γ, and IL-17F in Lck-GLK Tg mice treated with C1 or PBS for 16 d. C) ELISA of serum autoantibodies in Lck-GLK Tg mice treated with C1 or PBS for 30 d. Means ± SEM are shown; n = 4/group. D) EAE induction in wild-type C57BL/6J mice treated with PBS or C1 (0.4 μg/g body weight every 3 d). Clinical scores are presented on a scale of 1–5. PBS group, n = 10; C1 group, n = 7. E) ELISA of IL-17A in the sera from MOG-immunized mice at day 16. F) Induction of CIA in wild-type C57BL/6J mice treated with C1 (0.4 μg/g body weight every 3 d) or PBS. Clinical scores are presented on a scale of 1–16; n = 4/group. G) ELISA of serum IL-17A in collagen-immunized mice at d 28. Data shown are representatives of 3 independent experiments. α-dsDNA, anti-dsDNA antibody; ANA, anti-nuclear antibody; N.S., not significant; RF, rheumatoid factor. Means ± SEM are shown. *P < 0.05, **P < 0.01, ***P < 0.001 (2-tailed Student’s t test).

KHS (MAP4K5) = target: T1, KHS (MAP4K5) (Homo sapiens, UniProt Q9Y4K4); test: In vitro kinase assay, myelin basic protein as substrate (ADP-Glo); assay type: biochemical; settings: recombinant kinase domain
T1 construct: Recombinant proteins of kinase domains of various MAP4Ks were used; purchased Promega
T1 sequence (Q9Y4K4 20-277 limits assumed): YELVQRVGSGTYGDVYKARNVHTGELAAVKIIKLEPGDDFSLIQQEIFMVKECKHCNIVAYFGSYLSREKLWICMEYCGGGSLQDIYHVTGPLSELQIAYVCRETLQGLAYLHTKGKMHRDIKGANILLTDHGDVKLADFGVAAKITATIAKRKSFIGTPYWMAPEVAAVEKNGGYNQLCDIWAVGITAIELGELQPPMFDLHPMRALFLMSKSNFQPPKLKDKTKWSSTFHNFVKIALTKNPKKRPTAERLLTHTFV

AhR–ROR-γt complex = test: In situ proximity ligation assay in peripheral blood T cells from patients with SLE or RA; assay type: cell-based, human; settings: 5 μM for 30 min; T cells from patients with SLE and RA
Method: (§1) Proximity ligation assays (PLAs) were performed using the Duolink In Situ Red Starter Kit (MilliporeSigma) according to the manufacturer’s instructions ([24]). Briefly, cells were incubated with rabbit or mouse primary antibodies for the AhR–plus–ROR-γt pair, followed by species-specific secondary antibodies that are conjugated with oligonucleotides (PLA probes). After ligation and amplification reactions for 100 min, the PLA signals from each pair of PLA probes in close proximity (<40 nm) were visualized as individual red dots by a confocal microscope (TCS SP5II; Leica Microsystems, Buffalo Grove, IL, USA). Red dots represent direct interaction signals.
(§2) After verification of the induction of GLK–AhR–ROR-γt–IL-17A signaling in human SLE T cells, we next studied whether the GLK–AhR–ROR-γt signaling is a therapeutic target for autoimmune diseases. Because there are no known commercial GLK inhibitors, we performed high-throughput screening of 101,200 compounds to identify GLK inhibitors using both cell-based luciferase reporter assays and in vitro kinase assays. […] Nevertheless, the IC50 of verteporfin for MAP4K3-GLK was the lowest one. […]
(§3) Figure 3 Verteporfin (C1) blocks the AhR–ROR-γt complex in human autoimmune T cells. […] D) Quantification of the PLA signals shown in panel C. *P < 0.05, ***P < 0.001 (2-tailed Student’s t test).

[1] = test system: AhR–phosphorylated ROR-γt (Ser-489) complex; test: as above; assay type: cell-based, human; settings: 5 μM for 30 min; T cells from patients with SLE and RA
Method: as §1, §2, §3

With verteporfin the “serum levels of IL-6, TNF-α, IFN-γ, and IL-4, CIA” value (CIA mice; 0.4 μg/g body weight i.v. every 3 d) was “not significantly decreased”, the “serum IL-17A levels, CIA” value (CIA mice; 0.4 μg/g body weight i.v. every 3 d, d 28) was “significantly suppressed” and the “disease severity (clinical score), CIA” value (CIA mice; 0.4 μg/g body weight i.v. every 3 d from d 21) was “significantly suppressed”. For the same substance, the IC50 (KHS (MAP4K5)) was 0.0439 µM, the “AhR–ROR-γt complex (PLA signals)” value (AhR–ROR-γt complex) was “significantly inhibited” and the “AhR–phosphorylated ROR-γt complex (PLA signals)” value [1] was “significantly inhibited”.

Source: article PMC6766655, “AhR–ROR-γt complex is a therapeutic target for MAP4K3/GLK^highIL-17A^high subpopulation of systemic lupus erythematosus” (The FASEB Journal, 2019)
